From US20260216196A1, “IMIDAZO[1,2-A]PYRIDINE AND IMIDAZO[1,2-A]PYRAZINE DERIVATIVES AS MLLT1 AND MLLT3 INHIBITORS” (DARK BLUE THERAPEUTICS LTD., priority 2022, published 2026) come the findings set out here.

Like-named read-outs stand apart in the source and are kept apart here.

Test [1] concerns the target MLLT3 (Homo sapiens, UniProt P42568). Put plainly: HTRF IC50 determination assay, MLLT3 / H3K9cro peptide displacement. A general note: TR-FRET usually uses a lanthanide donor and a delayed reading to cut background.
In test [2] the target is T1, MLLT1 (Homo sapiens, UniProt Q03111). The note with it: read-out: MLLT1 assay IC50; HTRF, 6His tagged MLLT1, biotinylated H3K9cro peptide; compound 20 μM to 20 nM, 11 data points in duplicate.
Test [3] has as its target T1, MLLT1. Description: biochemical. Particulars: MLLT1 assay IC50 (nM), HTRF, 6His tagged MLLT1, biotinylated H3K9cro peptide; compound 20 μM to 20 nM, 11 data points in duplicate.
[4] abbreviates: read-out: MLLT3 assay IC50, 6His tagged MLLT3, biotinylated H3K9cro peptide, compound 20 μM to 20 nM, 11 data points in duplicate.
The mark [5] stands for this setting: MLLT3 assay IC50 (nM), 6His tagged MLLT3, biotinylated H3K9cro peptide, compound 20 μM to 20 nM, 11 data points in duplicate.

T1 sequence (Q03111 whole entry): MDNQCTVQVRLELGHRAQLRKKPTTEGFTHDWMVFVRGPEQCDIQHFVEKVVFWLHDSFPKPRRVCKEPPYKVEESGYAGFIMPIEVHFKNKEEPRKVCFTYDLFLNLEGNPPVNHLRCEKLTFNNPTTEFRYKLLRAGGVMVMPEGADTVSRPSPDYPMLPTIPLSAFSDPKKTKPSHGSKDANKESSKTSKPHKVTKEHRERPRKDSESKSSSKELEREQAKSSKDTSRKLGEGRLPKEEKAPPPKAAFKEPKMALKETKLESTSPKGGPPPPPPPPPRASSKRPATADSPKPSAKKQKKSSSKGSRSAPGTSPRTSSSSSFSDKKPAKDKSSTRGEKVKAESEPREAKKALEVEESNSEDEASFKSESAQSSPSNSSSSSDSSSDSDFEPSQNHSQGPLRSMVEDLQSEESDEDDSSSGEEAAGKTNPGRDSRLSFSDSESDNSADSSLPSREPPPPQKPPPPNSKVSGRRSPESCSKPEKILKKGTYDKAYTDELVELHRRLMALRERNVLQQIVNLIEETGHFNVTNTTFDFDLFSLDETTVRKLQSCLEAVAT
MLLT3, sequence (P42568 whole entry): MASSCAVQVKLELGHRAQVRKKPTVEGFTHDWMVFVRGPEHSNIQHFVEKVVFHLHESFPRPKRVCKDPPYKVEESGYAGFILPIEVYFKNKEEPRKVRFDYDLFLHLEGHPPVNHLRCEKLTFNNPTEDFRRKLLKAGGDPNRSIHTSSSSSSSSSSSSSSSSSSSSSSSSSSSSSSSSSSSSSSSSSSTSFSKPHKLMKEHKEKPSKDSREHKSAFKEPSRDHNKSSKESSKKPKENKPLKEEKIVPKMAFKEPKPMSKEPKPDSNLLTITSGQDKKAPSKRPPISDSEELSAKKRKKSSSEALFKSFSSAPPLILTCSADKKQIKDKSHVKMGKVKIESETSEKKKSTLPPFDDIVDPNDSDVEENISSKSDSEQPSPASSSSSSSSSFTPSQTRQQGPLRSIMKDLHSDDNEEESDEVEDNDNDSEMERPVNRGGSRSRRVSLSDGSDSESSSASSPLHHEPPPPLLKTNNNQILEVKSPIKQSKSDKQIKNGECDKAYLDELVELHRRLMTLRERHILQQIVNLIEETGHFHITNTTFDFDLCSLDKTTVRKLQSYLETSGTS

Broadly, the IC50 is the midpoint of a concentration-inhibition curve. Regarding `C[C@@H]1C[C@H](c2cn3cc(NC(=O)c4ccc5c(cnn5C)c4)ncc3n2)N(C)C1` (relative stereo) [Example 90, N-(2-((2R, rel-4R)-1,4-dimethylpyrrolidin-2-yl)imidazo[1,2-a]pyrazin-6-yl)-1-methyl-1H-indazole-5-carboxamide], the IC50 in test [1] (setting [4]) was 150 to 1500 nM; in test [2], less than 150 nM.

Consider `CO[C@@H]1C[C@H](c2cn3cc(NC(=O)c4ccc5c(cnn5C)c4)ncc3n2)N(C)C1` (stereo in doubt) [Example 103, N-{2-[(rel-2R,4R)-4-methoxy-1-methylpyrrolidin-2-yl]imidazo[1,2-a]pyrazin-6-yl}-1-methylindazole-5-carboxamide], for which the IC50 in test [1] (setting [4]) and in test [2] was 150 to 1500 nM each time.

In the case of `C[C@H]1C[C@H](c2cn3cc(NC(=O)c4ccc5c(cnn5C)c4)ncc3n2)N(C)C1` (relative stereo) [Example 89, N-(2-((2R, rel-4S)-1,4-dimethylpyrrolidin-2-yl)imidazo[1,2-a]pyrazin-6-yl)-1-methyl-1H-indazole-5-carboxamide], the IC50 in test [1] (setting [4]) and in test [2] was 150 to 1500 nM in each case.

Take `CO[C@H]1C[C@@H](c2cn3cc(NC(=O)c4ccc5c(cnn5C)c4)ncc3n2)N(C)C1` (stereo in doubt) [Example 86, N-{2-[(rel-2S,4S)-4-methoxy-1-methylpyrrolidin-2-yl]imidazo[1,2-a]pyrazin-6-yl}-1-methylindazole-5-carboxamide]: the values for the IC50 in test [1] (setting [4]) and in test [2] were 1500 to 20000 nM and 150 to 1500 nM, respectively.

As for `CO[C@H]1C[C@H](c2cn3cc(NC(=O)c4ccc5c(cnn5C)c4)ncc3n2)N(C)C1` (stereo in doubt) [Example 85, N-{2-[(rel-2R,4S)-4-methoxy-1-methylpyrrolidin-2-yl]imidazo[1,2-a]pyrazin-6-yl}-1-methylindazole-5-carboxamide], the IC50 in test [1] (setting [4]) and in test [2] was 150 to 1500 nM each time.

For the molecule `CN1CCCC1c1cn2cc(NC(=O)c3ccc4ncccc4n3)ccc2n1` (racemic) [Example 10, rac-N-[2-(1-methylpyrrolidin-2-yl)imidazo[1,2-a]pyridin-6-yl]-1,5-naphthyridine-2-carboxamide], the IC50 in test [3] is 1500 to 20000 nM; in test [1] (setting [5]), more than 20000 nM.

For the molecule `COc1ccc2nc(C(=O)Nc3ccc4nc(C5CCCN5C)cn4c3)sc2c1` (racemic) [Example 17, rac-6-methoxy-N-[2-(1-methylpyrrolidin-2-yl)imidazo[1,2-a]pyridin-6-yl]-1,3-benzothiazole-2-carboxamide], the IC50 in test [3] and in test [1] (setting [5]) was 1500 to 20000 nM in each case.

Turning to `CN1CCCC1c1cn2cc(NC(=O)c3ccc4cc(F)ccc4c3)ccc2n1` (single isomer, unassigned) [Example 5], the IC50 in test [3] and in test [1] (setting [5]) was 150 to 1500 nM each time.

Take `CN1CCCCC1c1cn2cc(NC(=O)c3ccc4c(cnn4C)c3)ccc2n1` (single isomer, unassigned) [Example 27]: the IC50 in test [3] was 1500 to 20000 nM; in test [1] (setting [5]) it was more than 20000 nM.

Take `Cc1ncsc1-c1ccc(C(=O)Nc2ccc3nc(C4CCCN4C)cn3c2)c(F)c1` (single isomer, unassigned) [Example 22]: the results for the IC50 in test [3] and in test [1] (setting [5]) were 150 to 1500 nM and 1500 to 20000 nM, respectively.

As to `CN1CCC[C@@H]1c1cn2cc(NC(=O)c3ccc4c(N5CCCCC5)nn(C)c4c3)ncc2n1` [Example 98, 1-methyl-N-{2-[(2R)-1-methylpyrrolidin-2-yl]imidazo[1,2-a]pyrazin-6-yl}-3-(piperidin-1-yl)indazole-6-carboxamide], the IC50 in test [3] and in test [1] (setting [5]) was 150 to 1500 nM in each case.

For the molecule `CN1CCCC1c1cn2cc(NC(=O)c3ccc4c(c3)nnn4C3CCCCC3)ccc2n1` (racemic) [Example 45, rac-1-cyclohexyl-N-[2-(1-methylpyrrolidin-2-yl)imidazo[1,2-a]pyridin-6-yl]-1H-1,2,3-benzotriazole-5-carboxamide], the IC50 in test [3] and in test [1] (setting [5]) was 150 to 1500 nM throughout.

With `CO[C@@H]1C[C@@H](c2cn3cc(NC(=O)c4ccc5c(cnn5C)c4)ncc3n2)N(C)C1` (stereo in doubt) [Example 104, N-{2-[(rel-2S,4R)-4-methoxy-1-methylpyrrolidin-2-yl]imidazo[1,2-a]pyrazin-6-yl}-1-methylindazole-5-carboxamide], the IC50 in test [1] (setting [4]) was in the range of 1500 to 20000 nM; in test [2], 150 to 1500 nM.

As to `Cc1nc(NC(=O)c2cc3cnn(C)c3cc2F)cn2cc([C@H]3CCCN3C)nc12` [Example 91, 6-fluoro-1-methyl-N-{8-methyl-2-[(2R)-1-methylpyrrolidin-2-yl]imidazo[1,2-a]pyrazin-6-yl}indazole-5-carboxamide], the IC50 in test [3] was less than 150 nM; in test [1] (setting [5]), 150 to 1500 nM.

For the molecule `CN1CCCC1c1cn2cc(NC(=O)c3ccc(-n4cncn4)cc3)ccc2n1` (racemic) [Example 12, rac-N-[2-(1-methylpyrrolidin-2-yl)imidazo[1,2-a]pyridin-6-yl]-4-(1H-1,2,4-triazol-1-yl)benzamide], the IC50 in test [3] fell in the range of 150 to 1500 nM; in test [1] (setting [5]), 1500 to 20000 nM.

On to `CN1CCCC1c1cn2cc(NC(=O)c3ccc4cc(F)ccc4c3)ccc2n1` (single isomer, unassigned) [Example 6], for which the IC50 in test [3] and in test [1] (setting [5]) was 1500 to 20000 nM throughout.
